According to US9353089B2, “Compositions and methods for the treatment of malaria” (Saint Louis University, priority 2013, dated 2016):
Where two headings read alike, the source gives them in different places.

Key:
[1] = system: Plasmodium falciparum 3D7 (CQ-sensitive); assay: In vitro antimalarial assay (malaria SYBR Green I-based fluorescence, MSF), 3D7; assay type: cell-based
Outline: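 Asynchronous P. falciparum 3D7 cultures (0.5% parasitemia, 2% hematocrit) were exposed to serially diluted compounds, in quadruplicate. Growth was then quantified by SYBR Green I fluorescence after adding lysis buffer containing 0.2 μL/mL dye.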

[2] = biological target: Plasmepsin-2 (PM-2; Plm II) (Plasmodium falciparum (isolate HB3), UniProt P46925); assay: Plasmepsin-2 enzyme inhibition assay; assay type: biochemical
Sequence of Plasmepsin-2 (PM-2; Plm II) (P46925 125-453 limits assumed): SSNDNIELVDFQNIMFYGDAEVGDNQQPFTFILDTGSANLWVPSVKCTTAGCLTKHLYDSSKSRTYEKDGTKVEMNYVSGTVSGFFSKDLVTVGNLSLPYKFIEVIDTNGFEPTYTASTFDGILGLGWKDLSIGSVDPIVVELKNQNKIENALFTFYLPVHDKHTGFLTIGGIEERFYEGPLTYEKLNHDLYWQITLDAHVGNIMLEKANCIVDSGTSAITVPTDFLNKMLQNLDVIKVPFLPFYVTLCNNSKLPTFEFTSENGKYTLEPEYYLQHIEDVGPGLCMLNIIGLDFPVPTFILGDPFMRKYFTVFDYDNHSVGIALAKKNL
Procedure: (§1) Plasmepsin-2 (PM-2; Plm II) and Plasmepsin (PM-4; Plm IV) expression and purification was performed following the published protocols (Istvan E S and Goldberg D E, 2005). The final purified protein was activated by diluting the protein to 0.3 mg/mL in activating buffer (0.1 M citrate pH 4.5, 0.1% Tween-20, 50 mM dithiothreitol) and incubated at room temperature for 40 min, then the activated enzyme was diluted in assay buffer (50 mM sodium acetate pH 4.7, 0.01% Tween-20). The enzymatic inhibition reaction was performed in 384 well plates with a total volume of 20 μl. 10 μl of diluted PM-2 or PM-4 enzyme was added to the 384-well plate except blank wells (blank wells add 10 μL of assay buffer) and 20 nL of serials of diluted 1000× compounds were added to the wells with 520 Echo® Liquid Handling System (Labcyte Inc.). 10 μL PM-2 peptide substrate (AnaSpec, Cat#, 62050) with assay buffer was then added to final concentration of 20 μM to start the reaction. After incubation the reaction at room temperature for 60 min, the fluorescence intensity at Ex/Em=360 nm/535 nm was measured using EnVision multilabel plate reader (Perkin-Elmer). The IC50 values were obtained using Graph Pad Prism 4 and are reported in Tables 8 and 9 below as PM-2 IC50 values.

recombinant human BACE1 [3] = biological target: recombinant human BACE1 (Homo sapiens, UniProt P56817); assay: β-Secretase (BACE1) enzyme inhibition FRET assay; assay type: biochemical
Sequence of recombinant human BACE1 (Homo sapiens, UniProt P56817) (P56817 46-501 limits assumed): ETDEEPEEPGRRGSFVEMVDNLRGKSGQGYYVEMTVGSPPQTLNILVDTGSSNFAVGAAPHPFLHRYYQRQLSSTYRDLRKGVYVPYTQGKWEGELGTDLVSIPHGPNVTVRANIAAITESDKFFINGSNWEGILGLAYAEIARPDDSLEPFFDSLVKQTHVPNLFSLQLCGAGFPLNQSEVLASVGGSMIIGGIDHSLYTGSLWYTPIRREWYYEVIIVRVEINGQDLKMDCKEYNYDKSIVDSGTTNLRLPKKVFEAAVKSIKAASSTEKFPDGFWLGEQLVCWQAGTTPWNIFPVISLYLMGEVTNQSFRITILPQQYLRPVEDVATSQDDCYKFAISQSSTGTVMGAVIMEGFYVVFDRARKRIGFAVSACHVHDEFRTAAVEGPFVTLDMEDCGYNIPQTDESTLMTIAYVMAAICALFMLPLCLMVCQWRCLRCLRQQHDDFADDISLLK
Procedure: (§2) The enzymatic inhibition activity assays were determined using the fluorescence resonance energy transfer (FRET) assay. The assays were performed in a 384-well plate format. […] CatD and CatE were activated by incubation in assay buffer (0.1 M NaOAc, 0.2 M NaCl, pH 3.5) at room temperature for 30 min. Subsequently, the rhBACE-1 substrate (R&D Systems, catalog# ES004), the Cathepsin D and Cathepsin E substrate (R&D Systems, Catalog # ES001) were added accordingly to final concentration 20 μM to initiate the reaction. After 60 min incubation at room temperature, the time-resolved fluorescence at Ex/Em=360 nm/460 nm was measured on an EnVision multilabel plate reader (Perkin-Elmer). The analytical software, GraphPad Prism 5.0 (GraphPad Software, Inc., USA) was used to generate IC50 values via non-linear regression analysis, which are reported in Tables 8-13 below as BACE1 IC50 values.

recombinant human BACE1 [4] = assay: β-Secretase (BACE1) enzyme inhibition FRET assay; assay type: biochemical
Procedure: as §2

[5] = biological target: Plasmepsin (PM-4; Plm IV) (Plasmodium falciparum (isolate 3D7), UniProt Q8IM16); assay: Plasmepsin-4 enzyme inhibition assay; assay type: biochemical; details: Table 8
Sequence of Plasmepsin (PM-4; Plm IV) (Q8IM16 122-449 limits assumed): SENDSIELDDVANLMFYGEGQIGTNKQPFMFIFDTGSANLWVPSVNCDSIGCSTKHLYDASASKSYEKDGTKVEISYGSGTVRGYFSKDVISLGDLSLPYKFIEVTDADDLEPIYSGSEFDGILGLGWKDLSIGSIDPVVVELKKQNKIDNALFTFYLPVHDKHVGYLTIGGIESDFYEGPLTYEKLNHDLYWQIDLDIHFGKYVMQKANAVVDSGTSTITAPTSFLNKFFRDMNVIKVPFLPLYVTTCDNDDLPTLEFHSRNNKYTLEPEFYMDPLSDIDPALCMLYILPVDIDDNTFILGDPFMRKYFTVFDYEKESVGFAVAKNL
Procedure: as §1

[6] = biological target: recombinant human Cathepsin D (Homo sapiens (Human), UniProt P07339); assay: Cathepsin D enzyme inhibition FRET assay; assay type: biochemical; details: for IC50: Table 8, read-out: CatD IC50
Sequence of recombinant human Cathepsin D (P07339 65-412): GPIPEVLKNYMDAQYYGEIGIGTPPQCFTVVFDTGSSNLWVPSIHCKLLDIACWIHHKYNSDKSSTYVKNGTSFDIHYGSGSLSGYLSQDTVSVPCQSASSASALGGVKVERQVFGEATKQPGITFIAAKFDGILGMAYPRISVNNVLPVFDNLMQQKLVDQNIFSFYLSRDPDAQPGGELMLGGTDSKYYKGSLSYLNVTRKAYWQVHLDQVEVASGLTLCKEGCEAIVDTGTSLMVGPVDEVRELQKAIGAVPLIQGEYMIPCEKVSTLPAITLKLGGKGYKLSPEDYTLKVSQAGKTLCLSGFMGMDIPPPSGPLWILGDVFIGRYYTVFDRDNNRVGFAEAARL
Procedure: (§3) The enzymatic inhibition activity assays were determined using the fluorescence resonance energy transfer (FRET) assay. The assays were performed in a 384-well plate format. […] The concentration of Cathepsin D was 20 ng/μL, and 1 ng/μL of Cathepsin E was used. CatD and CatE were activated by incubation in assay buffer (0.1 M NaOAc, 0.2 M NaCl, pH 3.5) at room temperature for 30 min. Subsequently, the rhBACE-1 substrate (R&D Systems, catalog# ES004), the Cathepsin D and Cathepsin E substrate (R&D Systems, Catalog # ES001) were added accordingly to final concentration 20 μM to initiate the reaction. After 60 min incubation at room temperature, the time-resolved fluorescence at Ex/Em=360 nm/460 nm was measured on an EnVision multilabel plate reader (Perkin-Elmer). The analytical software, GraphPad Prism 5.0 (GraphPad Software, Inc., USA) was used to generate IC50 values via non-linear regression analysis, which are reported in Tables 8-13 below as BACE1 IC50 values.

[7] = biological target: recombinant human Cathepsin E (Homo sapiens (Human), UniProt P14091); assay: Cathepsin E enzyme inhibition FRET assay; assay type: biochemical; details: Table 8; read-out: CatE IC50
Sequence of recombinant human Cathepsin E (P14091 54-396): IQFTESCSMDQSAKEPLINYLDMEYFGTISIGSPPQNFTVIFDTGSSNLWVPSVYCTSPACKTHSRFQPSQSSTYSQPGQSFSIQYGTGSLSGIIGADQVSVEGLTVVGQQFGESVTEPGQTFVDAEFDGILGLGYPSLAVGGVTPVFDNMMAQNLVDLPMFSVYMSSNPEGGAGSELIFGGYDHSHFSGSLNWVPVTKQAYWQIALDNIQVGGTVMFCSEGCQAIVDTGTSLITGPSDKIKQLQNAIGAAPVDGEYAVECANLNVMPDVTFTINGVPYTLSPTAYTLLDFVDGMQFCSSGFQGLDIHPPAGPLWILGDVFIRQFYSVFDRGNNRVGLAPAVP
Procedure: as §3

[8] = 3D7, read-out: 3D7 IC50 (μM), Table 12
[9] = 3D7, read-out: 3D7 IC50 (μM), Table 13
[10] = ratio of BACE1 IC50 to PM-2 IC50
[11] = 3D7, read-out: Pf 3D7 IC50, Table 8
[12] = 3D7, read-out: Pf 3D7 IC50 (μM), Table 11
[13] = 3D7, Table 8, read-out: Pf 3D7 IC50
[14] = 3D7, Table 10, read-out: Pf3D7 IC50
[15] = 3D7, Table 13, read-out: 3D7 IC50

`COc1cccc(-c2cccc(C3(c4ccccc4)NC(=N)N(C4CCCCC4)C3=O)c2)c1` (centres unmarked) [Example 326, 3-cyclohexyl-2-imino-5-[3-(3-methoxyphenyl)phenyl]-5-phenylimidazolidin-4-one] gave an IC50 [1, 8] of 1.34 µM, an IC50 [1, 9] of 1.34 µM and an IC50 ([2]; Table 12, read-out: PM-2 IC50) of 33.1 nM. It also gave an IC50 ([2]; Table 13, read-out: PM-2 IC50) of 33.1 nM, an IC50 (recombinant human BACE1 [3]; Table 12, read-out: BACE1 IC50) of about 9000 nM and an IC50 (recombinant human BACE1 [3]; Table 13, read-out: BACE1 IC50) of about 8900 nM. The “BACE1/PM2 Ratio” value (recombinant human BACE1 [4]; [10]) was about 270.

Work on `CCC(CN1C(=N)NC(c2ccccc2)(c2ccccc2)C1=O)c1ccccc1` (centres unmarked) [drawing 192] yielded an IC50 [1, 11] of 2.76 µM, an IC50 ([2]; Table 8, read-out: PM-II IC50) of 12 nM and an IC50 [5] of 45 nM. For the same compound, the IC50 (recombinant human BACE1 [3]; Table 8, read-out: BACE IC50) was 2300 nM, the IC50 [6] was 385 nM and the IC50 [7] was 99 nM.

`COc1cccc(C2(c3cccc(OC)c3)NC(=N)N(C3CCCCC3)C2=O)c1` [Example 128, 3-cyclohexyl-2-imino-5,5-bis(3-methoxyphenyl)-imidazolidin-4-one] was tested, and the IC50 [1, 9] was 0.768 µM, the IC50 [1, 12] was 0.768 µM and the IC50 [1, 11] was 0.768 µM. For the same compound, the IC50 ([2]; Table 8, read-out: PM-II IC50) was 36 nM, the IC50 ([2]; Table 13, read-out: PM-2 IC50) was 35.9 nM and the IC50 [5] was 41 nM. For the same compound, the IC50 (recombinant human BACE1 [3]; Table 8, read-out: BACE IC50) was 28900 nM, the IC50 (recombinant human BACE1 [3]; Table 13, read-out: BACE1 IC50) was 28900 nM and the IC50 [6] was 1100 nM. The IC50 [7] was 1860 nM.

For `COc1ccc(C2(c3ccc(OC)cc3)NC(=N)N(C3CCNCC3)C2=O)cc1` [Example 207, 2-imino-5,5-bis(4-methoxyphenyl)-3-(piperidin-4-yl)-imidazolidin-4-one], the IC50 [1, 13] was over 5 µM, the IC50 [1, 14] was over 5 µM and the IC50 [1, 15] was over 5 µM. The IC50 ([2]; Table 8, read-out: PM-II IC50) was 505 nM, the IC50 ([2]; Table 13, read-out: PM-2 IC50) was 505 nM and the IC50 [5] was 192 nM.

Compound `COc1cccc(-c2cccc(C3(c4ccccc4)NC(=N)N(C4CCOCC4)C3=O)c2)c1` (centres unmarked) [Example 324, 2-imino-5-[3-(3-methoxyphenyl)-phenyl]-3-(oxan-4-yl)-5-phenylimidazolidin-4-one] has an IC50 [1, 8] of 1.46 µM, an IC50 [1, 9] of 1.46 µM and an IC50 ([2]; Table 12, read-out: PM-2 IC50) of 11.3 nM. It also gave an IC50 ([2]; Table 13, read-out: PM-2 IC50) of 11.3 nM, an IC50 (recombinant human BACE1 [3]; Table 12, read-out: BACE1 IC50) of 2460 nM and an IC50 (recombinant human BACE1 [3]; Table 13, read-out: BACE1 IC50) of 2460 nM. For the same compound, the “BACE1/PM2 Ratio” value (recombinant human BACE1 [4]; [10]) was 218.

With `N=C1NC(c2ccccc2)(c2cccc(-c3cccnc3)c2)C(=O)N1C1CCCCC1` (centres unmarked) [Example 136, 3-cyclohexyl-2-imino-5-phenyl-5-[3-(pyridin-3-yl)-phenyl]imidazolidin-4-one] the IC50 [1, 8] was 0.75 µM, the IC50 [1, 9] was 0.75 µM and the IC50 [1, 12] was 0.75 µM. For the same compound, the IC50 [1, 11] was 0.75 µM, the IC50 ([2]; Table 8, read-out: PM-II IC50) was 13 nM and the IC50 ([2]; Table 12, read-out: PM-2 IC50) was 13 nM. It also gave an IC50 ([2]; Table 13, read-out: PM-2 IC50) of 13 nM, an IC50 [5] of 31 nM and an IC50 (recombinant human BACE1 [3]; Table 8, read-out: BACE IC50) of 1680 nM. The IC50 (recombinant human BACE1 [3]; Table 12, read-out: BACE1 IC50) was 18100 nM, the IC50 (recombinant human BACE1 [3]; Table 13, read-out: BACE1 IC50) was 18100 nM and the “selectivity for PM-II over BACE” value (recombinant human BACE1 [4]) was over 1000 fold. For the same compound, the “BACE1/PM2 Ratio” value (recombinant human BACE1 [4]; [10]) was 1392, the “selectivity for PM-II over CatD” value [6] was over 1000 fold and the IC50 [6] was over 10000 nM. For the same compound, the IC50 [7] was over 10000 nM.

`COc1cccc(-c2cccc(C3(C4CC4)NC(=N)N(C4CCOCC4)C3=O)c2)c1` (centres unmarked) [Example 329, 5-cyclopropyl-2-imino-5-[3-(3-methoxyphenyl)-phenyl]-3-(oxan-4-yl)imidazolidin-4-one] gave an IC50 [1, 8] of 0.746 µM, an IC50 [1, 9] of 0.621 µM and an IC50 ([2]; Table 12, read-out: PM-2 IC50) of 83.1 nM. For the same compound, the IC50 ([2]; Table 13, read-out: PM-2 IC50) was 83.1 nM, the IC50 (recombinant human BACE1 [3]; Table 12, read-out: BACE1 IC50) was about 4000 nM and the IC50 (recombinant human BACE1 [3]; Table 13, read-out: BACE1 IC50) was about 3600 nM. The “BACE1/PM2 Ratio” value (recombinant human BACE1 [4]) was 48.

In the case of `COc1ccc(C2(c3ccc(OC)cc3)NC(=N)N(C3CCN(C)CC3)C2=O)cc1` [Example 166, 2-imino-5,5-bis(4-methoxyphenyl)-3-(1-methylpiperidin-4-yl)imidazolidin-4-one], the IC50 [1, 13] is reported as 0.697 µM, the IC50 [1, 14] is reported as 0.697 µM and the IC50 [1, 15] is reported as 0.697 µM. It also gave an IC50 ([2]; Table 8, read-out: PM-II IC50) of 35 nM, an IC50 ([2]; Table 13, read-out: PM-2 IC50) of 34.7 nM and an IC50 [5] of 109 nM.

`COc1ccc(C2(c3cccnc3)NC(=N)N(C3CCOCC3)C2=O)cc1` (centres unmarked) [Example 323, 2-imino-5-(4-methoxyphenyl)-3-(oxan-4-yl)-5-(pyridin-3-yl)imidazolidin-4-one] gave an inhibition of growth at 1 µM ([1]; 3D7, 72 h, read-out: 3D7 % inh @ 1 μM) of 31%, an IC50 ([2]; Table 13, read-out: PM-2 IC50) of 74.3 nM and an IC50 (recombinant human BACE1 [3]; Table 13, read-out: BACE1 IC50) of about 10000 nM.
